Data as given in US9737510B2, “Indazole compounds and a process for the preparation thereof” (Council of Scientific & Industrial Research, priority 2013, dated 2017).

What was measured:
[1] = tested on: Human Islets; test: GSIS enhancement in human islets; assay type: cell-based; settings: low and high glucose
Protocol: (§1) NDS100179 induced insulin measurements at low and high glucose condition were carried out in Human Islets, Mice and MIN6 cells.

[2] = tested on: db/db mice; test: 30 day oral treatment of db/db mice (fasted glucose, OGTT, beta-cell function, triglyceride, body weight); assay type: in vivo
Protocol: db/db or leptin null mice are well accepted model of diabetes. 7 week old db/db mice were dosed orally with 10 mg/kg, 30 mg/kg of NDS100179 and vehicle alone for 30 days. Fasted plasma glucose levels in the animals were measured before the start of the study, at day 15 and day 30.
7 week db/db mice were dosed orally with 10 mg/kg, 30 mg/kg of NDS100179 and vehicle alone for 30 days. Beta-cell functionality was assessed using HOMA-beta % calculations at the end of 30 days.
7 week db/db mice were dosed orally with 10 mg/kg, 30 mg/kg of NDS100179 and vehicle alone for 30 days. Triglyceride levels were measured at the end of 30 days.
7 week db/db mice were dosed orally with 10 mg/kg, 30 mg/kg of NDS100179 and vehicle alone for 30 days. Animal body weight was measured every third day.

[3] = target: CYP3A4 (Homo sapiens, UniProt P08684); test: CYP3A4 inhibition; assay type: in vitro ADME
Chain of CYP3A4 (P08684 whole entry): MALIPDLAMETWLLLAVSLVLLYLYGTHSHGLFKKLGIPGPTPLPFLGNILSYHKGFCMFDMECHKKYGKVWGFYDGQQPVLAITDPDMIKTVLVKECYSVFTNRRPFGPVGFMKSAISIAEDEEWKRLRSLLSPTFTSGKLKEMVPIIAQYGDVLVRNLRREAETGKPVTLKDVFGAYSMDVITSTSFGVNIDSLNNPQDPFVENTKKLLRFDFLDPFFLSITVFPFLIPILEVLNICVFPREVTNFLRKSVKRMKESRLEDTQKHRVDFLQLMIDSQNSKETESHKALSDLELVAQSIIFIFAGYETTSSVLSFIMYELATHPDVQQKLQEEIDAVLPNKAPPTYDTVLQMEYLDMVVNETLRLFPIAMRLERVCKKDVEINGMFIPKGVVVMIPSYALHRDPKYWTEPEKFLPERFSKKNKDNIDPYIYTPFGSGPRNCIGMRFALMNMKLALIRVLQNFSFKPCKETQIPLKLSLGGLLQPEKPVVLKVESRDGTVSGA

[4] = tested on: HepG2 cells; test: Glucose uptake (2-NBDG) in insulin resistant HepG2 cells; assay type: cell-based; settings: 24 hours with drug, 2-NBDG 15 min
Protocol: The assay was performed after making the HepG2 cells insulin resistant by culturing them in high glucose condition with respective drugs for 24 hours. The assay was performed after 24 hours by allowing the cells to starve for 2 hrs in serum free media (containing respective drug) followed by 30 min incubation in KRB buffer (with respective drugs) and lastly incubating with 2-NBDG (fluorescent glucose analgoue) for 15 min. The cells were thoroughly washed and lysed with 1% triton-X. The fluorescence reading was immediately taken at Ex:465 and […].

[5] = tested on: C57BL/6J mice; test: Oral glucose tolerance test, glucose reduction in non-diabetic C57BL/6J mice; assay type: in vivo; settings: fasted male C57BL/6J mice, oral dose with 3 g/kg glucose, 0-120 minutes
Protocol: 12-13 weeks male C57BL/6J mice were fasted overnight. In the morning animals were orally dosed with different concentrations of NDS100179 or control vehicle along with 3 g/kg of glucose. Blood glucose was measured just before the dose and then 30, 60 90 and 120 minutes after the compound dose.

[6] = tested on: C57BL/6J mice; test: Insulin increase / GSIS in C57BL/6J mice; assay type: in vivo
Protocol: Insulin at 0 and 15 minutes time points was also measured in the studies conducted above where 12-13 weeks male C57BL/6J mice were fasted overnight and in the morning orally dosed with different concentrations of NDS100179 or control vehicle along with 3 g/kg of glucose.
as §1

[7] = tested on: MIN6 cells; test: Insulinotropic activity: insulin secretion from MIN6 cells (ELISA based assay); assay type: cell-based, mouse; settings: for Insulin Secretion: standard error in bracket
Protocol: Insulinotropic activity of the NDS100178 and NDS100179 was measured by a well-optimized ELISA based Assay (Shantani Protocol #5205) described below.
Materials • MIN6Cell (source: National Center for Cell Sciences, Pune) • Mouse Insulin ELISA kit (Mercodia, 10-1247-01) • Plate Shaker (MixMatefromEppendorf) • HEPES Balanced Krebs-Ringer bicarbonate buffer (components as follows)
Method • i. Seed proliferating culture of MIN-6 cells into a 6 well plate with almost half the confluency two days before the experiment. • ii. One the day of Insulin induction experiment, the cells should become almost confluent and are in good condition. • iii. On the day of experiment, first prepare 1×KRB-HEPES buffer with 0.1% BSA (for rinse) and without BSA (for equilibration and insulin induction) as described in the materials. • iv. Prepare equilibration buffer: 1×KRB-HEPES buffer without BSA containing 3.3 mM glucose (to bring down the glucose level of all cells to the same level). For example, add 66 ul 1 M glucose stock solution to 20 ml KRB-HEPES buffer without BSA. • v. Prepare the stimulating buffer (insulin induction): 1×KRB-HEPES buffer without BSA containing the defined glucose level (in most cases, it will be 16.7 mM glucose) and the desired concentration of molecule. • vi. Pre warm all the buffers to 37° C. in the water bath (at 15 minutes). • vii. Remove media from all wells, rinse each well twice with 2 ml KRB-HEPES buffer containing 0.1% BSA. • viii. Add 2 ml of equilibration buffer in each well and incubate at 37° C. for half an hour. • ix. After the incubation add 2 ml of stimulating buffer in respective wells (properly labelled) and incubate 37° C. for 1 hour. • x. In the meanwhile, turn on the refrigerated centrifuge and set the temperature to 4° C. Take out enzyme conjugate, diluent buffer, Calibrator 0 and stripes needed (for example, two stripes for 8 samples to be run in duplicate) from Mercodia ELISA kit box (store at 4° C.) and warm up them to RT. • xi. […] Centrifuge the tubes at 600 g for 5 min. • xiii. Take out 500 ul in fresh properly labelled precooled tubes. • xiv. Now dilute the samples 1:30 in calibrator 0 i.e. add 3 ul of each sample to 87 ul of Calibrator 0 in 8 different properly labelled 0.5 ml tubes. Mix them well. • xv. Prepare 1× enzyme conjugate buffer, i.e. mix 180 ul enzyme (11×) with 1800 ul diluent buffer for ELISA of two stripes. • xvi. Add 10 ul of each sample (diluted, in duplicate) in the two adjacent wells. Be careful not to touch the bottom. • xvii. Carefully add 100 ul of Enzyme Conjugate buffer (1×) to each well and incubate on a plate shaker (eppendorf MixMate) at 800 rpm for 2 hours at 25° C. • xviii. 45 min before the incubation is over take out wash buffer, substrate TMB and Stop solution. Keep them at RT. • xix. 5 min before the incubation is over prepare 1× wash buffer (21×), i.e. 40 ml distilled water+2 ml (21×) wash buffer in a reservoir. • xx. After the incubation is over, wash each well 7 times with 350 ul wash buffer. Use a multichannel (175 ul). • xxi. After the washing add 200 uL substrate TMB solution in each well. Maintain a proper pace. • xxii. Allow to incubate for 15 min. Set the program on the plate reader, to take absorbance read at 450 nm. Add a 5 sec shake step to allow proper mixing. • xxiii. After incubation immediately add 50 ul Stop solution in each well at same pace and take absorbance read at 450 nm.
Assay conditions were kept same in all the assays. The difference in absorption-value for control experiment (no treatment with molecule) over different days is attributed to cell culture conditions. Other varying conditions are specified in the respective graphs.
[Note: If not mentioned specifically, HG=High Glucose (16.7 mM), LG=Low Glucose (3.3 mM)]

[8] = Kinetic solubility; assay type: physicochemical
[9] = Metabolic study in HLM; assay type: in vitro ADME
[10] = Pharmacokinetics in mice; assay type: in vivo
From the text: Based on the pharmacokinetics studies performed in Mice NDS100179 is 100% orally bioavailable compound (FIG. 9).

[11] = Metabolic study and intrinsic clearance in MLM; assay type: in vitro ADME
[12] = oral 10 mg/kg, 30 mg/kg, end of 30 days

## 5-Chloro-3-(4,5-dihydro-1H-imidazol-2-yl)-1-methyl-3a,7a-dihydro-1H-indazole [NDS100179]
[1]
  GSIS enhancement: enhance insulin secretion only at high glucose concentration
[2]; at the end of 30 days of oral treatment
  glucose tolerance (OGTT): significant improvement in glucose tolerance
[2]; oral 10 mg/kg and 30 mg/kg for 30 days, day 0, 15, 30
  fasted plasma glucose (basal glucose level): significant control in rise of basal glucose level
[2]; oral 10 mg/kg, 30 mg/kg for 30 days, measured every third day
  body weight: No significant change in body weight
[2]; [12]
  beta-cell function (HOMA-beta %): significant improvements in beta-cell functions
  triglyceride levels: significant reduction in triglyceride levels
[2]; oral 30 mg/kg for 30 days
  rise in fasted blood glucose levels: no statistically significant rise
[3]
  CYP3A4 Inhibition: No inhibition
[4]
  glucose uptake in HepG2 cells: increase glucose uptake
[5]
  blood glucose (oral glucose tolerance test): dose dependently reduce the blood glucose
[6]; Mice, low and high glucose
  GSIS enhancement: enhance insulin secretion only at high glucose concentration
[6]; fasted male C57BL/6J mice, oral dose with 3 g/kg glucose, 0 and 15 minutes
  insulin secretion in mice: blood plasma concentration glucose dependent
[7]; 33 uM, 1 hour, high glucose (16.7 mM), three different days
  insulin secretion from MIN6 cells in high glucose conditions: significant increase in the insulin secretion
[7]; MIN6 cells, 10 nM
  insulin secretion over control: not found to be statistically significant
[7]; MIN6 cells, 50 nM
  insulin secretion over control: active insulinotrope
[7]; MIN6 cells, 100 nM
  insulin secretion over control: active insulinotrope
[7]; MIN6 cells, compound 0.1 μM
  Insulin Secretion: 5.55 (1.0) ng/ml
[7]; MIN6 cells, compound 1.0 μM
  Insulin Secretion: 10.27 (0.6) ng/ml
[7]; MIN6 cells, compound 10.0 μM
  Insulin Secretion: 15.45 (1.2) ng/ml
[7]; MIN6 cells, high glucose vs lower glucose conditions
  glucose dependence of insulinotropic activity: glucose dependent
[7]; MIN6 cells, low and high glucose
  GSIS enhancement: enhance insulin secretion only at high glucose concentration
[8]
  solubility kinetic: 205.27 µM
[9]
  Metabolic Study HLM Mean % PCR*: 80.11%
[10]
  AUC(0-t): 837.113 ng·h/mL
  AUC(inf): 854.231 ng·h/mL
  AUC(inf)/AUC(0-t) %: 102.049%
  Cmax: 631.1 ng/mL
  Tmax: 15 min
  oral bioavailability: 100%
  t½: 1.7 h
[11]
  Intrinsic Clearnace MLM: 63.7 μl/min/mg of protein
  Metabolic Study MLM Mean % PCR*: 39.25%
